Experimental data: patent US8314089B2, “Substituted pyrazolamides and their use” (AiCuris GmbH & Co. KG, priority 2008, dated 2012)

Test system: HIV
Test: HIV infection in cell culture (H9 cells, 2% FCS)
Format: cell-based
Settings: Human immunodeficiency virus 1, HIV-infected H9 cells, suppression of 50% of virus-induced syncytia
Description: The HIV test is conducted according to the method of Pauswels et al. [cf. Journal of Virological Methods 1988, 20, 309-321], with modifications.
Primary human blood lymphocytes (PBLs) are enriched using Ficoll-Hypaque and stimulated, in RPMI 1640 medium, 20% fetal calf serum, with phytohemagglutinin (90 μg/ml) and interleukin-2 (40 U/ml). For the infection with the infectious HIV, the PBLs are pelletted and the cell pellet is subsequently suspended in 1 ml of a suitable diluted HIV virus adsorption solution and incubated for 1 hour at 37° C. (pellet infection). Unabsorbed virus is subsequently removed by centrifugation, and the infected cells are transferred to test plates (e.g. 96-well microtiter plates), which contain the test substances in a suitable dilution.
Alternatively, for example HIV-susceptible, permanent H9 cells (ATCC or NIAID, USA) are used instead of normal human blood lymphocytes for testing the antiviral effects of the compounds of the invention. Infected H9 cells are grown for test purposes in RPMI 1640 medium, 2% and/or 20% fetal calf serum.
The virus adsorption solution is centrifuged and the infected cell pellet is taken up in growth medium, so as to give 1×10^5 cells per ml. The cells infected in this way are pipetted at approx. 1×10^4 cells/well into the wells of 96-well microtiter plates (pellet infection). Alternatively the HIV is pipetted in separately only after preparation of the substance dilutions in the microtiter plates and after addition of the cells (supernatant infection).
The first vertical row of the microtiter plate contains only growth medium and cells that are not infected, but are otherwise treated exactly as described above (cell control). The second vertical row of the microtiter plate receives only HIV-infected cells (virus control) in growth medium. The other wells contain the compounds of the invention in various concentrations, starting from the wells of the 3rd vertical row of the microtiter plate, from which the test substances are diluted 2^10-fold in 2-fold steps.
Alternatively, supernatant infections are carried out (see above), in which the cells are sown in 96-well plates. The HIV virus is then added in a volume of 50 μl.
The test preparations are incubated at 37° C., until the formation of syncytia that is typical of HIV occurs in the untreated virus control (between day 3 and 6 after infection), which is then evaluated either microscopically or by p24 ELISA detection methods (Vironostika, BioMerieux, The Netherlands) or photometrically or fluorometrically using Alamar Blue indicator dye.
The IC50 values are determined as the concentration of the test substance at which 50% (approx. 20-100 syncytia) of the virus-induced syncytia are suppressed by the treatment with the compound of the invention. The cut-off values are set correspondingly in the ELISA test and in the photometric or fluorometric determination using Alamar Blue. In addition to determination of the antiviral effects, the treated cell cultures are also investigated microscopically with respect to cytotoxic, cytostatic or cytological changes and with respect to solubility. Active compounds that show cell-altering, cytotoxic findings in the concentration range of the activity are not assessed for their antiviral activity.

Row | SMILES | IC50 [µM]
1 | COc1ccc(-c2cc(C(=O)N3CCOCC3)nn2-c2cccc(Cl)c2)cc1OC [Example 35] | 0.1
2 | O=C(c1cc(-c2cccc(OC(F)(F)F)c2)n(-c2cccc(Cl)c2)n1)N1CCOCC1 [Example 4] | 0.05
3 | O=C(c1cc(-c2cccc(OC(F)(F)F)c2)n(-c2cccc(Cl)c2)n1)N1CCSC1 [Example 6] | 0.1
4 | N#Cc1cccc(-c2cc(C(=O)N3CCOCC3)nn2-c2cccc(Cl)c2)c1 [Example 32] | 0.04
5 | O=C(c1cc(-c2cccc(OC(F)(F)F)c2)n(-c2cccc(Cl)c2)n1)N1CCCOCC1 [Example 5] | 0.04
6 | O=C(c1cc(-c2cccc(C(F)(F)F)c2)n(-c2cccc(Cl)c2)n1)N1CCSC1 [Example 43] | 0.1
7 | O=C(c1cc(-c2cccc(OC(F)(F)F)c2)n(-c2cccc(Cl)c2)n1)N1CC[C@@H](O)C1 [Example 10] | 0.05
8 | O=C(c1cc(-c2ccccc2)n(-c2cccc(Cl)c2)n1)N1CCSC1 [Example 34] | 0.08
9 | O=C(c1cc(-c2ccccc2)n(-c2cccc(Cl)c2)n1)N1CCOCC1 [Example 33] | 0.05
10 | O=CN1CCN(C(=O)c2cc(-c3cccc(SC(F)(F)F)c3)n(-c3cccc(Cl)c3)n2)CC1 [Example 15, 4-{[1-(3-Chlorophenyl)-5-(3-trifluoromethylthiophenyl)-1H-pyrazol-3-yl]carbonyl}-piperazine-1-carbaldehyde] | 0.15
11 | O=C(c1cc(-c2cccc(C(F)(F)F)c2)n(-c2cccc(Cl)c2)n1)N1CCC(O)C1 (centres unmarked) [Example 2] | 0.05
